Here are results for one molecule from article PMC10755693, “Widespread Family of NAD^+-Dependent Sulfoquinovosidases at the Gateway to Sulfoquinovose Catabolism” (Journal of the American Chemical Society, 2023).

The target of the assay is T1, ArSqgA (Arthrobacter sp. U41, UniProt Z9RXK5N058).
T1 construct: synthetic gene with codons harmonized for E. coli; homodimer; GH188
T1 sequence (Z9RXK5N058 14-392): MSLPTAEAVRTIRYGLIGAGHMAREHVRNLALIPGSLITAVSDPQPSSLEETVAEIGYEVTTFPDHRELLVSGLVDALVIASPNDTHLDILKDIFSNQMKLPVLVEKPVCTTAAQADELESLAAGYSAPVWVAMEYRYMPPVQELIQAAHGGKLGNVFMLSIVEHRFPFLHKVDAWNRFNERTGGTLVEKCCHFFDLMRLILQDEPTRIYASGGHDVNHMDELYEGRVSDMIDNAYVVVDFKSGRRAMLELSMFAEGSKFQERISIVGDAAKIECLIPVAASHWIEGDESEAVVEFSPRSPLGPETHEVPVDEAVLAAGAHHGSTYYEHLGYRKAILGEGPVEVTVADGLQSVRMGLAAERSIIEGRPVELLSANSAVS
Briefly: X-ray crystal structure, […] Å. To be noted: Rossmann domain cleft; binary complex. The format is binding.

In the case of `NC(=O)c1ccc[n+]([C@@H]2O[C@H](COP(=O)(O)OP(=O)(O)OC[C@H]3O[C@@H](n4cnc5c(N)ncnc54)[C@H](O)[C@@H]3O)[C@@H](O)[C@H]2O)c1` [NAD^+], the “X-ray crystal structure, 2.65 Å” value was “modeling of a single molecule of NAD^+ bound in an extended conformation in each monomer”.
